Structures can show the parent of a compound that is named as a salt. Where two headings read alike, the source gives them in different places.
Legend:
[1] = system: isolated human eccrine glands; assay: In vitro sweat reduction study on isolated human eccrine glands; format: cell-based
Source text: This example illustrates the ability of CCBAs to reduce sweat secretion from isolated human eccrine glands.
The method employed was analogous to that described by Sato and Sato in Am. J. Physiol., 1973, 225, 1147-1151.

[2] = system: secretory coil cells of human eccrine glands; assay: Inhibition of methylcholine-induced calcium influx into human eccrine secretory coil cells (Fura-2); format: cell-based
Procedure: The procedure is performed on an isolated human sweat gland. Collapsed segments of secretory coil are held between two glass pipettes in the perfusion bath of an inverted microscope and bathed at 37° C. in a solution buffered to pH 7.4. Intracellular calcium may be measured by any convenient means; in our tests the fluorescent dye FURA-2 AM was used (full details are given in Examples 1 and 2). The calcium influx induced by the administration of methylcholine at 1 μmol.dm^−3 is compared before and after the introduction of the test material into the buffer solution. Test materials are classed as CCBAs if they are able to reduce the methylcholine-induced calcium influx into the cells, preferably by at least 20%, more preferably by at least 50%. The concentration of test material used should be between 1 and 100 μmol.dm^−3 for pure compounds, 25 μmol.dm^−3 being a typical concentration of use. When the test material used is not a pure compound, for example when it is a plant extract, allowance must be made for the non-active components in the extract when choosing the test dosage.
(§1) Collapsed segments of secretory coil were held between two glass pipettes in the perfusion bath of an inverted Olympus IMT-2 microscope and bathed in a solution at 37° C. containing (in mmol.dm^−3): sodium chloride, 130; HEPES (buffer; 4-[2-hydroxyethyl]-1-piperazineethanesulphonic acid), 20; potassium chloride, 5; calcium chloride, 1; magnesium chloride, 1; and glucose, 10. The pH of the solution was adjusted to 7.4 using 1 mol.dm^−3 sodium hydroxide solution.
The calcium influx was induced by the administration of methylcholine (a cholinergic agonist) at 1 μmol.dm^−3. This was first done for control solutions containing no CCBA and then for test solutions containing tetrandrine (various dosages).
(§2) Intracellular calcium concentration was measured using the fluorescent probe Fura-2, a dye that has high affinity for calcium. When illuminated with ultraviolet light at 350 and 380 nm, Fura-2 emits corresponding fluorescent signals. Importantly, when calcium binds to the dye, the magnitude of the emitted fluoresence signal alters. It is these changes that are used to calculate the intracellular calcium concentration (vide infra).
Segments of secretory coil were incubated for 40 minutes, at 37° C., with 5 μm.dm^−3 Fura-2 AM. This form of Fura-2 is lipid soluble and readily enters the cell where the AM group is cleaved off by esterases, leaving the fluorescent lipid-insoluble dye trapped within the cells. Excitation light at 350 and 380 nm was supplied from a computer controlled Photon Technology International (PTI) spectrofluorimeter. This light was passed through a 390 nm dichroic mirror, prior to passage through the microscope objective (×40) and onto the tissue sample. The fluorescence resulting from the tissue was passed through a 505 nm bandpass filter, before being detected by a photomultiplier tube. The output from the photomultiplier tube was digitised and analysed using Photon Technology International software. Background fluorescence (measured prior to introduction of the Fura-2 AM) was subtracted from the total signal for each wavelength and a value representing the intracellular calcium concentration was obtained by dividing the fluorescence value resulting from the 350 nm excitation light by that resulting from the 380 nm excitation light.

[3] = system: secretory coil cells of human apocrine glands; assay: Inhibition of methylcholine-induced calcium influx into human apocrine secretory coil cells (Fura-2); format: cell-based
Procedure: as §1
as §2, with “It is these changes that are used to calculate the intracellular calcium concentration (vide infra).” left out
Segments of secretory coil were incubated for 40 minutes, at 37° C., with 5 μm.dm^−3 Fura-2 AM. This form of Fura-2 is lipid soluble and readily enters the cell where the AM group is cleaved off by esterases, leaving the fluorescent lipid-insoluble dye trapped within the cells. […] The fluorescence resulting from the tissue was passed through a 505 nm bandpass filter, before being detected by a photomultiplier tube. The output from the photomultiplier tube was digitised and analysed using Photon Technology International software. […]

[4] = system: Staphylococcus epidermidis; conditions: cited from earlier work
[5] = system: isolated cannulated monkey palm eccrine sweat glands; conditions: in vitro; cited from earlier work

COc1ccc2cc1Oc1ccc(cc1)C[C@H]1c3cc(c(OC)cc3CCN1C)Oc1c(OC)c(OC)cc3c1[C@H](C2)N(C)CC3 [Tetrandrine, tetrandrine]
% reduction in sweat secretion ([1]; dosage 50 μmol.dm^−3): 93%
Ca influx inhibition ([2]; dosage 1 μmol.dm^−3, methylcholine 1 μmol.dm^−3): 24%
Ca influx inhibition ([2]; dosage 10 μmol.dm^−3, methylcholine 1 μmol.dm^−3): 44%
Ca influx inhibition ([2]; dosage 25 μmol.dm^−3, methylcholine 1 μmol.dm^−3): 75%
Ca influx inhibition ([2]; dosage 50 μmol.dm^−3, methylcholine 1 μmol.dm^−3): 96%
Ca influx inhibition ([2]; dosage 100 μmol.dm^−3, methylcholine 1 μmol.dm^−3): 100%
Ca influx inhibition ([3]; dosage 10 μmol.dm^−3, methylcholine 50 μmol.dm^−3): 60%
Ca influx inhibition ([3]; dosage 50 μmol.dm^−3, methylcholine 50 μmol.dm^−3): 93%

COc1ccc(CCN(C)CCCC(C#N)(c2ccc(OC)c(OC)c2)C(C)C)cc1OC (stereo not shown) [Verapamil hydrochloride]
% reduction in sweat secretion ([1]; dosage 1000 μmol.dm^−3): 93%

CCO [ethanol]
MIC ([4]; stated by contrast, no source given): greater than 1 mg.ml^−1

CC(C)=CCCC(C)=CCCC(C)=CCO [farnesol, 3,7,11-trimethyldodeca-2,6,10-trienol]
MIC ([4]; literature values): ca. 25 μg.ml^−1

Oc1cc(Cl)ccc1Oc1ccc(Cl)cc1Cl [triclosan, 2′,4,4′-trichloro, 2-hydroxy-diphenyl ether]
MIC ([4]; literature values): 0.01 to 10 µg/mL

methoxy-verapamil
effect on sweat production [5]: reduce sweat production

Source: US6632422B2, “Antiperspirant and deodorant products and methods for their use” (priority 2000, dated 2003)
